Measurements taken from EP4603105A1, “PHARMACEUTICAL COMPOSITION CONTAINING CYCLIC COMPOUND HAVING SELECTIVE KRAS INHIBITORY EFFECT AGAINST HRAS AND NRAS” (CHUGAI SEIYAKU KABUSHIKI KAISHA, priority 2022, dated 2024).
*1 amine or outer side, *2 acyl side, *3 side chain or, on linkers, in order; H or OH if unused. Where a SMILES comes first, the peptide text is derived from it. Bridges are numbered along the chain shown (N, C = ends). [ ]: non-standard residue; d: D form. The star is where a group is joined. hPhe(3-Cl-4-CF3) = N[C@@H](CCc1ccc(C(F)(F)F)c(Cl)c1)C(=O)O; X12 = C=CCN([C@@H](Cc1ccc(C(F)(F)F)cc1)C(=O)[*:2])[*:1]; NPrPhe(4-CF3) = CCCN[C@@H](Cc1ccc(C(F)(F)F)cc1)C(=O)O; Pro(4-spirocPr) = O=C(O)[C@@H]1CC2(CC2)CN1; NMeGly(cPent) = CN[C@H](C(=O)O)C1CCCC1; Hyp = O=C(O)[C@@H]1C[C@@H](O)CN1; NMeD = CN[C@@H](CC(=O)O)C(=O)O; NMeL = CN[C@@H](CC(C)C)C(=O)O; Morpholide = C1CN(*)CCO1; NMeA = CN[C@@H](C)C(=O)O; Ac5c = NC1(C(=O)O)CCCC1; Aze = O=C(O)[C@@H]1CCN1; Ac4c = NC1(C(=O)O)CCC1; Sar = CNCC(=O)O

Columns and labels:
[1] = target: GDP-bound NRAS wild-type protein (Homo sapiens, UniProt P01111); test: Binding to NRAS by surface plasmon resonance (SPR), KD and KD ratio to KRAS
How it was run: (§1)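 Affinity is measured by surface plasmon resonance at 30°C against captured, GDP-loaded RAS carrying a biotinylated Avi tag. Compounds are titrated by single-cycle kinetics, and KD comes from a 1:1 fit.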

[2] = system: human lung cancer strain NCI-H441; assay type: cell-based
How it was run: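 Readout: […] after the ATP-based reagent. Compound: serial dilutions in dimethyl sulfoxide.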

HRAS wild-type protein = HRAS wild-type protein (Homo sapiens, UniProt P01112); test: Binding to HRAS by surface plasmon resonance (SPR), KD and KD ratio to KRAS
How it was run: as §1

[3] = ratio of the KD value with respect to GDP-bound NRAS wild-type protein to the KD value with respect to KRAS
[4] = ratio of the KD value with respect to HRAS wild-type protein to the KD value with respect to KRAS
[5] = ratio of KD for GDP-bound NRAS wild-type protein to KD for KRAS
[6] = ratio of KD for HRAS wild-type protein to KD for KRAS
[7] = ratio of KD value for GDP-bound NRAS wild-type protein to KD value for KRAS (SPR)
[8] = ratio of KD value for HRAS wild-type protein to KD value for KRAS (SPR)

GDP-bound NRAS wild-type protein, sequence (P01111 whole entry): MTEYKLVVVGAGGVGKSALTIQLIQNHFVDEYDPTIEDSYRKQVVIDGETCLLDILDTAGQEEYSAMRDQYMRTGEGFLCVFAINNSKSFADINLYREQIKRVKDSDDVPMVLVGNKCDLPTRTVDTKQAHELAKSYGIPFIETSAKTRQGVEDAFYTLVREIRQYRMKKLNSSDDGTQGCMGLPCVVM
HRAS wild-type protein, sequence (P01112 whole entry): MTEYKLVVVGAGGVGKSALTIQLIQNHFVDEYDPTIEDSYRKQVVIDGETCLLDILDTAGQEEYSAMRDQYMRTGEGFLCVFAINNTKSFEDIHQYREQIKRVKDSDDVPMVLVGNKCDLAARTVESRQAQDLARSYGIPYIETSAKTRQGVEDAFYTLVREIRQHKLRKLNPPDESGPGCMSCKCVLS

| SMILES | NRAS /KRAS [1, 3] | IC50 [2] | HRAS /KRAS (HRAS wild-type protein; [4]) | NRAS /KRAS [1, 5] | HRAS /KRAS (HRAS wild-type protein; [6]) | also measured |
| --- | --- | --- | --- | --- | --- | --- |
| CCO[C@@H]1C[C@H]2C(=O)NC3(CCCC3)C(=O)N(C)[C@@H](C3CCCC3)C(=O)N(C)[C@H](C(=O)N(C)C)CC(=O)N(C)[C@@H](CC(C)C)C(=O)N[C@@H]([C@@H](C)CC)C(=O)N(C)CC(=O)N(C)[C@H]3CCCCN(C3=O)[C@@H](Cc3ccc(C(F)(F)F)cc3)C(=O)N(C)CC(=O)N[C@@H](CCc3cc(F)c(C(F)(F)F)c(F)c3)C(=O)N2C1 [PP0579] | C (A compound having a KD ratio of 0.1 or more and less than 3 is denoted as C) | 2.4 nM | B (a compound having 3 or more and less than 10 is denoted as B) | – | – | – |
| CCCO[C@@H]1C[C@H]2C(=O)NC3(CC(C)(C)C3)C(=O)N(C)[C@@H](C(CC)CC)C(=O)N(C)[C@H](C(=O)N(C)C)CC(=O)N(C)[C@H]3CCCCc4ccc(cc4)C[C@@H](C(=O)N(C)CC(=O)N[C@@H](CCc4ccc(C(F)(F)F)c(OC)c4)C(=O)N2C1)N1CC/C=C\C[C@@H](C1=O)N(C)C(=O)CN(C)C(=O)[C@H]([C@@H](C)CC)NC3=O [PP3038] | – | 3.1 nM | – | A (a compound having 10 or more and less than 20 is denoted as A) | A (a compound having 10 or more and less than 20 is denoted as A) | – |
| CCCOC[C@H]1C(=O)N[C@@H]([C@@H](C)CC)C(=O)N(C)CC(=O)N(C)[C@H]2C/C=C\CCN(C2=O)[C@@H](Cc2ccc(C(F)(F)F)cc2)C(=O)N(C)CC(=O)N[C@@H](CCc2cc(F)c(C(F)(F)F)c(F)c2)C(=O)N2C[C@H](OCC)C[C@H]2C(=O)NC2(CC(F)(F)C2)C(=O)N(C)[C@@H](C2CCCC2)C(=O)N(C)[C@H](C(=O)N(C)CCC)CC(=O)N1C [PP1744] | – | 5.3 nM | – | – | – | NRAS /KRAS [1, 7]: A (a compound having 10 or more and less than 20 is denoted as A); HRAS /KRAS (HRAS wild-type protein; [8]): A (a compound having 10 or more and less than 20 is denoted as A) |
| CCCN1C(=O)[C@@H]2CCN2C(=O)CN(C)C(=O)[C@H]([C@@H](C)CC)NC(=O)[C@H](CC(C)C)N(C)C(=O)C[C@@H](C(=O)N2CCOCC2)N(C)C(=O)[C@H](C2CCCC2)N(C)C(=O)C2(CCC2)NC(=O)[C@@H]2C[C@@H](OCC)CN2C(=O)[C@H](CCc2ccc(C(F)(F)F)c(Cl)c2)NC(=O)CN(C)C(=O)[C@@H]1Cc1ccc(C(F)(F)F)cc1 [PP0411] ([NMeL]I[Sar][Aze][NPrPhe(4-CF3)][Sar][hPhe(3-Cl-4-CF3)][Hyp](Et)[Ac4c][NMeGly(cPent)][NMeD]-Morpholide; lactam N-11) | C (A compound having a KD ratio of 0.1 or more and less than 3 is denoted as C) | 2.8 nM | C (A compound having a KD ratio of 0.1 or more and less than 3 is denoted as C) | – | – | – |
| CCO[C@@H]1C[C@H]2C(=O)NC3(CCC3)C(=O)N(C)[C@@H](C3CCCC3)C(=O)N(C)[C@H](C(=O)N3CCOCC3)CC(=O)N(C)[C@@H](CC(C)C)C(=O)N[C@@H]([C@@H](C)CC)C(=O)N(C)CC(=O)N(C)[C@H]3CC=CCN(C3=O)[C@@H](Cc3ccc(C(F)(F)F)cc3)C(=O)N(C)CC(=O)N[C@@H](CCc3cc(F)c(C(F)(F)F)c(F)c3)C(=O)N2C1 [PP0832] | – | 21.5 nM | – | C (A compound having a KD ratio of 0.1 or more and less than 3 is denoted as C) | C (A compound having a KD ratio of 0.1 or more and less than 3 is denoted as C) | – |
| C=CCN1C(=O)[C@@H]2CCN2C(=O)[C@H](C)N(C)C(=O)[C@H]([C@@H](C)CC)NC(=O)[C@H](CC(C)C)N(C)C(=O)C[C@@H](C(=O)N2CCOCC2)N(C)C(=O)[C@H](C2CCCC2)N(C)C(=O)C2(CCCC2)NC(=O)[C@@H]2CCCN2C(=O)[C@H](CCc2ccc(C(F)(F)F)c(Cl)c2)NC(=O)CN(C)C(=O)[C@@H]1Cc1ccc(C(F)(F)F)cc1 [PP0114] ([NMeL]I[NMeA][Aze][X12][Sar][hPhe(3-Cl-4-CF3)]P[Ac5c][NMeGly(cPent)][NMeD]-Morpholide; lactam N-11) | – | 6.1 nM | – | C (A compound having a KD ratio of 0.1 or more and less than 3 is denoted as C) | C (A compound having a KD ratio of 0.1 or more and less than 3 is denoted as C) | – |
| CCCC[C@H]1C(=O)N[C@@H]([C@@H](C)CC)C(=O)N(C)CC(=O)N(C)[C@H]2C/C=C\CCN(C2=O)[C@@H](Cc2ccc(C)cc2)C(=O)N(C)CC(=O)N[C@@H](CCc2cc(F)c(C(F)(F)F)c(F)c2)C(=O)N2C[C@H](OCC)C[C@H]2C(=O)NC2(CCC2)C(=O)N(C)[C@@H](C2CCCC2)C(=O)N(C)[C@H](C(=O)N(C)C)CC(=O)N1C [PP2798] | – | 8.5 nM | – | A (a compound having 10 or more and less than 20 is denoted as A) | A (a compound having 10 or more and less than 20 is denoted as A) | – |
| CCCN1C(=O)[C@@H]2CCN2C(=O)CN(C)C(=O)[C@H]([C@@H](C)CC)NC(=O)[C@H](CC(C)C)N(C)C(=O)C[C@@H](C(=O)N(C)C)NC(=O)[C@H](C2CCCC2)N(C)C(=O)C2(CCC2)NC(=O)[C@@H]2CCCN2C(=O)[C@H](CCc2ccc(C(F)(F)F)c(Cl)c2)NC(=O)CN(C)C(=O)[C@@H]1Cc1ccc(C(F)(F)F)cc1 [PP0386] ([NMeL]I[Sar][Aze][NPrPhe(4-CF3)][Sar][hPhe(3-Cl-4-CF3)]P[Ac4c][NMeGly(cPent)]D-NMe2; lactam N-11) | – | 29.6 nM | – | C (A compound having a KD ratio of 0.1 or more and less than 3 is denoted as C) | B (a compound having 3 or more and less than 10 is denoted as B) | – |
| CCO[C@@H]1C[C@H]2C(=O)NC3(CC(C)(C)C3)C(=O)N(C)[C@@H](C3CCCC3)C(=O)N(C)[C@H](C(=O)N(C)C)CC(=O)N(C)[C@H]3CCCC/C=C/c4ccc(cc4)C[C@@H](C(=O)N(C)CC(=O)N[C@@H](CCc4ccc(C(F)(F)F)c(OC)c4)C(=O)N2C1)N1CC/C=C\C[C@@H](C1=O)N(C)C(=O)CN(C)C(=O)[C@H]([C@@H](C)CC)NC3=O [PP1832] | – | 2.5 nM | – | – | – | NRAS /KRAS [1, 7]: B (a compound having 3 or more and less than 10 is denoted as B); HRAS /KRAS (HRAS wild-type protein; [8]): B (a compound having 3 or more and less than 10 is denoted as B) |
| CCO[C@@H]1C[C@H]2C(=O)NC3(CCC3)C(=O)N(C)[C@@H](C3CCCC3)C(=O)N(C)[C@H](C(=O)N(C)CC)CC(=O)N(C)[C@@H](CC(C)C)C(=O)N[C@@H]([C@@H](C)CC)C(=O)N(C)CC(=O)N(C)[C@H]3C/C=C\CCN(C3=O)[C@@H](Cc3ccc(C(F)(F)F)cc3)C(=O)N(C)CC(=O)N[C@@H](CCc3cc(F)c(C(F)(F)F)c(F)c3)C(=O)N2C1 [PP1300] | – | 9.5 nM | – | – | – | NRAS /KRAS ([1]; ratio of KD with respect to GDP-bound NRAS wild-type protein to KD with respect to KRAS): A (a compound having 10 or more and less than 20 is denoted as A); HRAS /KRAS (HRAS wild-type protein; ratio of KD with respect to HRAS wild-type protein to KD with respect to KRAS): A (a compound having 10 or more and less than 20 is denoted as A) |
| CCC[C@H]1C(=O)N[C@@H]([C@@H](C)CC)C(=O)N(C)CC(=O)N(C)[C@H]2C/C=C\CCN(C2=O)[C@@H](Cc2ccc(C(F)(F)F)cc2)C(=O)N(C)CC(=O)N[C@@H](CCc2cc(F)c(C(F)(F)F)c(F)c2)C(=O)N2C[C@H](OCC)C[C@H]2C(=O)NC2(CC(C)(C)C2)C(=O)N(C)[C@@H]([C@@H](C)CC)C(=O)N(C)[C@H](C(=O)N(C)C)CC(=O)N1C [PP1941] | A (a compound having 10 or more and less than 20 is denoted as A) | 9.2 nM | A (a compound having 10 or more and less than 20 is denoted as A) | – | – | – |
| CCCN1C(=O)[C@@H]2CCN2C(=O)[C@H](C)N(C)C(=O)[C@H]([C@@H](C)CC)NC(=O)[C@H](CC(C)C)N(C)C(=O)C[C@@H](C(=O)N2CCOCC2)N(C)C(=O)[C@H](C2CCCC2)N(C)C(=O)C2(CCCC2)NC(=O)[C@@H]2CC3(CC3)CN2C(=O)[C@H](CCc2ccc(C(F)(F)F)c(Cl)c2)NC(=O)CN(C)C(=O)[C@@H]1Cc1ccc(C(F)(F)F)cc1 [PP0282] ([NMeL]I[NMeA][Aze][NPrPhe(4-CF3)][Sar][hPhe(3-Cl-4-CF3)][Pro(4-spirocPr)][Ac5c][NMeGly(cPent)][NMeD]-Morpholide; lactam N-11) | – | 3.9 nM | – | C (A compound having a KD ratio of 0.1 or more and less than 3 is denoted as C) | C (A compound having a KD ratio of 0.1 or more and less than 3 is denoted as C) | – |
| CCO[C@@H]1C[C@H]2C(=O)NC3(CCC3)C(=O)N(C)[C@@H](C3CCCC3)C(=O)N(C)[C@H](C(=O)N(C)C)CC(=O)N(C)[C@@H](CC3CC3)C(=O)N[C@@H]([C@@H](C)CC)C(=O)N(C)CC(=O)N(C)[C@H]3CCCCCN(C3=O)[C@@H](Cc3ccc(C(F)(F)F)cc3)C(=O)N(C)CC(=O)N[C@@H](CCc3cc(F)c(C(F)(F)F)c(F)c3)C(=O)N2C1 [PP0667] | B (a compound having 3 or more and less than 10 is denoted as B) | 8.8 nM | B (a compound having 3 or more and less than 10 is denoted as B) | – | – | – |
